In patent US20020010166A1, “CRYSTALLINE PROGESTAGENS” (priority 1997, published 2002):
Values joined by “and” are separate entries in the source; they are usually repeats but may differ in a detail not shown here. Equal values may be shown once.

Legend:
[1] = Differential Scanning Calorimetry (DSC) of crystalline forms of Org 30659; type: physicochemical; settings: determined by DSC, heating rate 5.0° C./min, from the melting peak
Method: Differential Scanning Calorimetry (DSC)
DSC curves were recorded using a Seiko DSC-120 instrument. Closed aluminium pans having a volume of 5 μl were used in combination with a nitrogen flow of 50 ml/min. The heating rate was 5.0° C./min.
DSC curves of crystalline forms of Org 30659. The horizontal axis represents the temperature in ° C. (heating), the vertical axis represents heat in μW or mW.

[2] = Relative stability of crystalline forms on heating / in boiling water; type: physicochemical; settings: at temperatures below 155° C., including subjection to boiling water

C#C[C@]1(O)C=C[C@H]2[C@@H]3CCC4=CC(=O)CC[C@@H]4[C@H]3C(=C)C[C@@]21C [form (A), (17α)-17-hydroxy-11-methylene-19-norpregna-4,15-diene-20-yn-3-one]
thermodynamic stability, enthalpy ΔH [1]: 84.3 mJ/mg and 84 mJ/mg | relative stability of the crystalline form [2]: the most stable one

C#C[C@]1(O)C=C[C@H]2[C@@H]3CCC4=CC(=O)CC[C@@H]4[C@H]3C(=C)C[C@@]21C [form (B), (17α)-17-hydroxy-11-methylene-19-norpregna-4,15-diene-20-yn-3-one]
thermodynamic stability, enthalpy ΔH [1]: 70 mJ/mg and 70.4 mJ/mg

C#C[C@]1(O)C=C[C@H]2[C@@H]3CCC4=CC(=O)CC[C@@H]4[C@H]3C(=C)C[C@@]21C [form (C), (17α)-17-hydroxy-11-methylene-19-norpregna-4,15-diene-20-yn-3-one]
thermodynamic stability, enthalpy ΔH [1]: 71.9 mJ/mg | thermodynamic stability, enthalpy ΔH ([1]; listed as form C): 71.9 mJ/mg
